Data published in ChEMBL document CHEMBL4325895, “Discovery and structure-activity-relationship study of novel imidazole cyclopropyl amine analogues for mutant isocitric dehydrogenase 1 (IDH1) inhibitors” (Bioorg Med Chem Lett, 2018).

Tests used:
[1] = Intrinsic clearance in human liver microsomes assessed per gram of protein at 0.1 uM after 60 mins in presence of NADPH by LC-MS/MS analysis; assay type: ADME, Microsome; conditions: 1 h
[2] = molecular target: Isocitrate dehydrogenase [NADP] cytoplasmic (Homo sapiens, UniProt O75874, R132H); test: Inhibition of IDH1 (unknown origin) R132H mutant using alpha-KG as substrate after 60 mins in presence of NADPH by resazurin dye-based fluorescence assay
[3] = Intrinsic clearance in rat liver microsomes assessed per gram of protein at 0.1 uM after 60 mins in presence of NADPH by LC-MS/MS analysis; assay type: ADME, Microsome; conditions: 1 h
[4] = molecular target: Isocitrate dehydrogenase [NADP] cytoplasmic (Homo sapiens, UniProt O75874, R132C); test: Inhibition of IDH1 R132C mutant in human HT1080 cells assessed as inhibition of 2HG production after 48 hrs by LC-MS/MS analysis; assay type: cell-based
[5] = Intrinsic clearance in mouse liver microsomes assessed per gram of protein at 0.1 uM after 60 mins in presence of NADPH by LC-MS/MS analysis; assay type: ADME, Microsome; conditions: 1 h
[6] = Drug level in human liver microsomes treated with (R)-3-(2-((1-(1-(3-chloro-4-fluorophenyl)-1H-imidazol-4-yl)cyclopropyl)amino)pyrimidin-4-yl)-4-((S)-1-fluoroethyl)oxazolidin-2-one at 0.01 uM after 60 mins by LC-MS/MS analysis; assay type: ADME, Microsome
[7] = AUC in CD-1 mouse at 5 mg/kg, po administered via gavage by mass spectrometric analysis; assay type: ADME, organism-based; conditions: in vivo
[8] = Stability in human liver microsomes assessed as parent compound remaining at 0.01 uM after 60 mins by LC-MS/MS analysis; assay type: ADME, Microsome; conditions: read-out: Stability
[9] = AUC in CD-1 mouse at 1 mg/kg, iv by mass spectrometric analysis; assay type: ADME, organism-based; conditions: in vivo
[10] = Volume of distribution at steady state in CD-1 mouse at 1 mg/kg, iv by mass spectrometric analysis; assay type: ADME, organism-based; conditions: in vivo
[11] = Clearance in CD-1 mouse at 1 mg/kg, iv by mass spectrometric analysis; assay type: ADME, organism-based; conditions: in vivo
[12] = Oral bioavailability in CD-1 mouse at 5 mg/kg administered via gavage by mass spectrometric analysis; assay type: ADME, organism-based; conditions: in vivo
[13] = Dose normalized AUC in CD-1 mouse at 5 mg/kg, po administered via gavage by mass spectrometric analysis; assay type: ADME, organism-based; conditions: in vivo

Chain of Isocitrate dehydrogenase [NADP] cytoplasmic (Homo sapiens, UniProt O75874, R132H) (O75874 2-414 R132H limits assumed): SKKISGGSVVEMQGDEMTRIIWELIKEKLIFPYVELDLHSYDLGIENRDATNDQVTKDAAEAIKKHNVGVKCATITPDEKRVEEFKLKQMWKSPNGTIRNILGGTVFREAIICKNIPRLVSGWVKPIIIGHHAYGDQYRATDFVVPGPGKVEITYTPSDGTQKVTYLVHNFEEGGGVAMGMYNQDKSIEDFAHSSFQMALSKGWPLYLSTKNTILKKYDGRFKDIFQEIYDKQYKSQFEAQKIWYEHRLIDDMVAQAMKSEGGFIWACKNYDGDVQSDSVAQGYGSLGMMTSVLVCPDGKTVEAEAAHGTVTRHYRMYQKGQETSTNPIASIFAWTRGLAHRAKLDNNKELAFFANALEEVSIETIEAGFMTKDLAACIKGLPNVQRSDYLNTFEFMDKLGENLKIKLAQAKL
Chain of Isocitrate dehydrogenase [NADP] cytoplasmic (Homo sapiens, UniProt O75874, R132C) (O75874 2-414 R132C limits assumed): as the sequence (O75874 2-414 R132H limits assumed) above, with H131C counted along it

Row | IC50 [2] [nM] | IC50 [4] [nM] | SMILES | also measured
1 | 32 | 25 | C[C@H](F)[C@H]1COC(=O)N1c1cc(Cl)nc(NC2(c3cn(-c4ccc(F)c(Cl)c4)cn3)CC2)n1 | CLint [1]: 110 mL/min/g; CLint [3]: 123 mL/min/g; CLint [5]: 155 mL/min/g
2 | 54 | 56 | C[C@H](F)[C@H]1COC(=O)N1c1ccnc(NC2(c3cn(-c4ccc(Cl)cc4)cn3)CC2)n1 | 
3 | 40 | 21 | C[C@H](F)[C@H]1COC(=O)N1c1ccnc(NC2(c3cn(-c4ccc(F)c(Cl)c4)cn3)CCC2)n1 | CLint [1]: 195 mL/min/g; CLint [3]: 372 mL/min/g; CLint [5]: 505 mL/min/g
4 | 42 | 23 | C[C@H](F)[C@H]1COC(=O)N1c1ccnc(NC2(c3cn(-c4cccc(Cl)c4)cn3)CC2)n1 | 
5 | 25 | 12 | C[C@H](F)[C@H]1COC(=O)N1c1ccnc(NC2(c3cn(-c4ccc(F)c(Cl)c4)cn3)CC2)n1 | AUC [7]: 25 ng·h/mL; CLint [1]: 125 mL/min/g; remaining at 1 h, 0.01 µM [8]: 22%; AUC [9]: 40 ng·h/mL; CLint [3]: 133 mL/min/g; Vd [10]: 1.2 L/kg; clearance [11]: 172 mL/min/kg; bioavailability [12]: 20%; CLint [5]: 185 mL/min/g
6 | 36 | 21 | C[C@H](F)[C@H]1COC(=O)N1c1ccnc(NC2(c3cn(-c4cc(Cl)cc(Cl)c4)cn3)CC2)n1 | 
7 | 721 |  | CC(F)(F)[C@H]1COC(=O)N1c1ccnc(NC2(c3cn(-c4ccc(F)c(Cl)c4)cn3)CC2)n1 | 
8 | 35 | 18 | C[C@H](F)[C@H]1COC(=O)N1c1nc(NC2(c3cn(-c4ccc(F)c(Cl)c4)cn3)CC2)ncc1F | AUC [7]: 153 ng·h/mL; CLint [1]: 55 mL/min/g; AUC [9]: 257 ng·h/mL; CLint [3]: 89 mL/min/g; Vd [10]: 0.6 L/kg; clearance [11]: 65 mL/min/kg; bioavailability [12]: 12%; AUC/dose [13]: 31 ng/mL.hr/(mg/kg); CLint [5]: 95 mL/min/g
9 | 27 | 18 | C[C@H](F)[C@H]1COC(=O)N1c1ccnc(NC2(c3cn(-c4cc(F)cc(Cl)c4)cn3)CC2)n1 | CLint [1]: 350 mL/min/g; CLint [3]: 240 mL/min/g; CLint [5]: 567 mL/min/g

The next lines start with the compound.

Row | SMILES | IC50 [2] [nM] | IC50 [4] [nM] | also measured
10 | C[C@H](F)[C@H]1COC(=O)N1c1ccnc(NC2(c3cn(-c4ccccc4C(F)(F)F)cn3)CC2)n1 | 112 |  | 
11 | C[C@H](F)[C@H]1COC(=O)N1c1ccnc(NC2(c3cn(-c4cccc(C(F)(F)F)c4)cn3)CC2)n1 | 32 | 10 | CLint [1]: 153 mL/min/g; CLint [3]: 312 mL/min/g; CLint [5]: 430 mL/min/g
12 | C[C@H](F)[C@H]1COC(=O)N1c1ccnc(NC2(c3ncn(-c4cccc(C(F)(F)F)c4)c3C#N)CC2)n1 | 85 | 55 | 
13 | O=C1OC[C@H]([C@@H](F)CO)N1c1cc(Cl)nc(NC2(c3cn(-c4ccc(F)c(Cl)c4)cn3)CC2)n1 |  |  | Drug uptake [6]: Active
14 | C[C@H](F)[C@H]1COC(=O)N1c1ccnc(NC2(c3ncn(-c4cccc(C(F)(F)F)c4)n3)CC2)n1 | 831 |  | 
15 | C[C@H](F)[C@H]1COC(=O)N1c1ccnc(NC2(c3ncn(-c4cccc(C(F)(F)F)c4)c3Cl)CC2)n1 | 41 | 26 | 
16 | Cc1c(C2(Nc3nccc(N4C(=O)OC[C@@H]4[C@H](C)F)n3)CC2)ncn1-c1cccc(C(F)(F)F)c1 | 56 | 38 | 
17 | C[C@H](F)[C@H]1COC(=O)N1c1ccnc(NC2(c3cn(-c4cc(C(F)(F)F)ccn4)cn3)CC2)n1 | 250 |  | 
18 | C[C@H](F)[C@H]1COC(=O)N1c1ccnc(NC2(c3cn(-c4ccc(C(F)(F)F)cc4)cn3)CC2)n1 | 65 | 32 | 
19 | C[C@H](F)[C@H]1COC(=O)N1c1ccnc(NC2(c3cn(-c4ccnc(C(F)(F)F)c4)cn3)CC2)n1 | 220 |  | 
20 | C[C@H](F)[C@H]1COC(=O)N1c1ccnc(NC2(c3cn(-c4cccc(C(F)(F)F)n4)cn3)CC2)n1 | 266 |  | 
21 | C[C@H](F)[C@H]1COC(=O)N1c1ccnc(NC2(c3cn(-c4cncc(C(F)(F)F)c4)cn3)CC2)n1 | 152 |  | 
